Assays:
[1] = system: T cells isolated from mouse spleens; assay: T cell proliferation inhibition (CFSE flow cytometry, anti-CD3/anti-CD28 activation); type: cell-based, C57BL/6 mice; settings: mouse spleen T cells, CD3/CD28 activated, cultured three days
How it was run: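 Splenic T cells from 7-week-old C57BL/6 mice were CFSE-labelled and seeded at 2×10^5/well. They were activated with anti-CD3/anti-CD28 ([…]) and treated with compound at […] in triplicate for 3 days at 37 °C. Proliferation was read by CFSE dilution on flow cytometry and expressed as % inhibition.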

[2] = system: HCT-116 colon cancer cell lines; assay: Invasion Assay using Matrigel, HCT-116; type: cell-based, Human; settings: HCT-116, Matrigel, 24 hours treatment, vs DMSO
Experimental: To evaluate the metastasis inhibitory efficacy of the compounds of the present invention on HCT-116 colon cancer cell lines, an Invasion Assay using Matrigel was performed to assess the cells' invasion ability.
First, Matrigel was thawed on ice in RPMI-1640 medium without FBS, then diluted with DMEM at a ratio of 1:20.
The diluted Matrigel mixture was applied to the upper chamber at 100 μl per well, and 750 μl of RPMI-1640 without FBS was added to the lower chamber.
The plates were then incubated at 37° C. for 1 hour to allow the Matrigel to solidify.
After coating, the Matrigel mixture in the upper chamber was removed using a pipette, and the chamber was washed with RPMI without FBS.
Human-derived colorectal cancer cell line HCT-116, obtained from the Korean Cell Bank, was cultured in RPMI-1640 medium containing 10% FBS. […]
After staining was complete, any remaining cells in the upper chamber were removed. Finally, the infiltrated cells were observed under a microscope, photographed, and the degree of infiltration was analyzed.

psoriasis-induced mice = assay: In vivo psoriasis model (Aldara cream, Imiquimod); design: species or system BALB/c mice
Experimental: To verify the therapeutic effect of the compound according to the present invention on psoriasis, a psoriasis animal model was established as follows, and the compound according to the present invention was administered to evaluate the alleviation of skin lesions and changes in immune cell patterns.
For the establishment of the psoriasis animal model, BALB/c mice (7 weeks old, female, 20 g) were purchased from HanabioTech Co., Ltd. and acclimatized to the rearing environment for one week.
Subsequently, the hair on the mouse back was shaved using a hair removal device for the first time, and then completely shaved using a depilatory cream (Nicrin Cream (80% thioglycolic acid, II Dong Pharmaceutical)) for the second time. […]
Body weights of mice in each group were measured on days 1, 4, and 8 after the start of injection and psoriasis induction. […]
To evaluate the therapeutic effect in a psoriasis-induced mouse model, the PASI (Psoriasis Area and Severity Index) score was measured.
The PASI score is based on three criteria: erythema, scaling, and skin thickness, each scored from 0 (none) to 4 (severe). […]
Observations were conducted daily at the same time, and the same observer visually assessed each criterion and recorded the scores, with the results presented in FIG. 13. […]
All samples were measured in duplicate, and the absorbance was measured at 450 nm using a microplate reader.

Row | Molecule | Proliferation inhibition rate (%) ([1]; 10 nM) | Proliferation inhibition rate (%) ([1]; 100 nM) | Proliferation inhibition rate (%) ([1]; 1 μM) | Proliferation inhibition rate (%) ([1]; 10 μM) | Proliferation inhibition rate (%) ([1]; 30 μM) | Proliferation inhibition rate (%) ([1]; 50 μM) | number of infiltrated cells (invasion) [2] | efficacy in improving dermatological symptoms (psoriasis-induced mice)
1 | 12-(4-Hydroxypiperazin-1-Yl)Dodecyl-N-(6-Aminopurazin-2-Yl)Carboxamide [Compound 10] | 100.00 | 100.00 | 100.00 | 100.00 | 100.00 | 100.00 | reduction in the number of infiltrated cells | –
2 | Nc1nc(NC(=O)CCCCCCCCCCCCN2CCN(CCO)CC2)nc2nc[nH]c12 [Compound 15, 12-[4-(2-Hydroxyethyl)Piperazin-1-Yl]Dodecyl-N-(6-Aminopurine-2-Yl)Carboxamide] | – | – | – | – | – | – | – | excellent efficacy in improving dermatological symptoms
